Where a name gives a salt, the structure may show the parent alone. Non-standard residues stand in square brackets, D forms with d. Residues, ends and D or L forms follow the SMILES beside them. *: point of attachment. Boc = CC(C)(C)OC(=O)*; CH2Cl = ClC*
How the values were obtained:
[1] = tested on: people having Type II diabetes; assay: Treating Type II diabetes: blood glucose study; format: in vivo, human; conditions: versus control group (placebo)
Method: Type II diabetes is a disease in which the amount of insulin produced by the pancreas is inadequate to meet the body's needs and thus glucose, which is metabolized by insulin is not taken up normally from the blood into the body tissues. Therefore glucose in the blood rises. Type II diabetes is detected by a fasting glucose level of greater than 126 mg/dL measured on two occasions or one blood glucose level of greater than 200 mg/dL on one occasion or two random blood glucose levels of more than 200 mg/dL. Also a glucose tolerance test having a glucose level of more than 200 mg/dL 2 hours after drinking 75 grams of glucose also qualifies an individual as having Type II diabetes.
Two groups of 10 people are used in this study. The first given a treatment of ritonavir at 600 mg taken twice a day, while the other 10 people were given a placebo. The treatment continued for 2 months.
(§1) The study group is advised to follow their normal routine concerning their eating habits and exercise patterns, which is recorded 1 month prior to this study and throughout this study.
At the end of two months blood glucose levels and a glucose tolerance test are tested with all of the people in the study.
The same study in Example 6 is conducted with a larger group of people having Type II diabetes. Each of the treated groups 1 to 7 is given as amprenavir, atazanavir, indinavir, lopinavir, fosamprenavir, nelfinavir or saquinavir in the same amounts as set forth in Example 3. The control group is given a placebo. At the end of two months another fasting (9-12 hours) lipid profile is taken.

[2] = tested on: persons having hyperlipidemia; assay: Treating hyperlipidemia: fasting lipid profile study; format: in vivo, human; conditions: fasting (9-12 hours), versus control group
Method: Hyperlipidemia is an elevation of lipids in the bloodstream. These lipids include, for example, cholesterol and triglycerides. General hyperlipidemia is determined by the results of a lipid profile. The lipid profile includes LDL, HDL, triglycerides and total cholesterol measurements. A group of persons having hyperlipidemia with a total cholesterol level greater than 240 mg/dl, an HDL (high density lipid) of below 40 mg/ml, a triglyceride level of greater than 200 mg/dl and an LDL (low density lipid) level of over 160 mg/ml, after a 9 to 12 hours of fasting, are chosen for this study.
10 people are given a treatment of ritonavir at 600 mg taken twice a day. The other 10 people are given a placebo. The treatment continued for 2 months.
as §1
At the end of two months another fasting (9-12 hours) lipid profile is taken.
The same study in Example 8 is conducted with a larger group of people having hyperlipidemia. Each of the treated groups 1 to 7 is given as amprenavir, atazanavir, indinavir, lopinavir, fosamprenavir, nelfinavir or saquinavir in the same amounts as set forth in Example 3. The control group is given a placebo. At the end of two months another fasting (9-12 hours) lipid profile is taken.

enteropeptidase [3] = molecular target: T1, enteropeptidase (Homo sapiens, UniProt P98073); assay: Test for enteropeptidase only (data not shown); format: biochemical
pepsin = pepsin (Homo sapiens, UniProt P0DJD8); conditions: read-out: Ki (affinity for pepsin); cited from earlier work
enteropeptidase [4] = molecular target: T1, enteropeptidase; assay: Trypsinogen activation assay; format: biochemical; parameters: purchased R&D Systems 1585-SE
Description: In vitro Testing: the Trypsinogen Activation Assay
Material: The following component, used in the present trypsinogen activation assay may be purchased as follows:
In the first step, the enteropeptidase cleaves the trypsinogen in its active form, trypsin. Trypsin, in the second step, cleaves the N-CBZ-Gly-Pro-Arg-p-nitroanilide (pNA) into N-CBZ-Gly-Pro-Arg and p-nitroanilide (pNA). The amount of pNA can be measured at 405 nm, and reflects the amount of trypsin cleaved and thus the inhibitory activity of the molecules tested on the enteropeptidase.
In the first step, the following mix was prepared (50 μl final) • recombinant human enteropeptidase: 1.5 nM final • sodium citrate: […] • candidate molecule or control: 1 μl • trypsinogen: 2.5 μM final
The mix was incubated at room temperature during 10 minutes and the reaction was stopped with 5 μl of HCl 0.4 M.
In the second step, the previous mix was then incubated with a 50 μl mix comprising 1 mM of N-CBZ-Gly-Pro-Arg-pNA, Tris Hcl pH 8.4 20 mM final and NaCl-150 mM final, at room temperature for 10 minutes. The absorbance of the resulting mix was read at 405 nm.
Results are expressed as the percentage of inhibition, which is the absorbance at 405 nm of the reaction in the presence of different concentrations of inhibitor as compared to the value obtained in the absence of inhibitor.

[5] = molecular target: Recombinant human enteropeptidase (human, UniProt P98073 41-1019, limits assumed); assay: cell-based or functional assay
[6] = Example 7, groups 1 to 7, two months
[7] = Example 9, groups 1 to 7, two months

T1 sequence (P98073 whole entry): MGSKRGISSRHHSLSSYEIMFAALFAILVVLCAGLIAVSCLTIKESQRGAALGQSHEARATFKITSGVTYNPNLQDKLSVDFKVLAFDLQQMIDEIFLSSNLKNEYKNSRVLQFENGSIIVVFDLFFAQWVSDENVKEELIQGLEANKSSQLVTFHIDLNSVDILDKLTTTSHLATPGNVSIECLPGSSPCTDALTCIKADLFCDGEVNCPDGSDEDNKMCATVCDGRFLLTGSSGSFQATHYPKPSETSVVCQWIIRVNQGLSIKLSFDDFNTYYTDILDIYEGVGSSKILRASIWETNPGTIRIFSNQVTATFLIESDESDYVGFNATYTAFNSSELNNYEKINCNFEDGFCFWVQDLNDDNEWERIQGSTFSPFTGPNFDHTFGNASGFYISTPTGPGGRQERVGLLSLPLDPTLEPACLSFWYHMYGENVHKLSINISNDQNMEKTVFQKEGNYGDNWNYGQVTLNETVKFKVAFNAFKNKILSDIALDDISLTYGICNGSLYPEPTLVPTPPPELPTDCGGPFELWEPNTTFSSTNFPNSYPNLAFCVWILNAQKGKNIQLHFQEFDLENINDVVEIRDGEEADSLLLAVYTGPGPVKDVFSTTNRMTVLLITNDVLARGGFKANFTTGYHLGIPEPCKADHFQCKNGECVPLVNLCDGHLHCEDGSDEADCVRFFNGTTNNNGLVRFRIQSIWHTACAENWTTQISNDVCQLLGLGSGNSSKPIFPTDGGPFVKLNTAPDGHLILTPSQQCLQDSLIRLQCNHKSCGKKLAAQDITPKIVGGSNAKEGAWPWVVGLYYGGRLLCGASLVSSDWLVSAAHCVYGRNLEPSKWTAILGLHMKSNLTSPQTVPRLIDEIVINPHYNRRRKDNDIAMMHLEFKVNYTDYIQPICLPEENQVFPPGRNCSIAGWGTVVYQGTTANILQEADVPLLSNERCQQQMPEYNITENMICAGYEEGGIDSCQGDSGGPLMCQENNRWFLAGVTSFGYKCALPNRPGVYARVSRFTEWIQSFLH
Recombinant human enteropeptidase, sequence (P98073 41-1019 E134Q/P732S limits assumed): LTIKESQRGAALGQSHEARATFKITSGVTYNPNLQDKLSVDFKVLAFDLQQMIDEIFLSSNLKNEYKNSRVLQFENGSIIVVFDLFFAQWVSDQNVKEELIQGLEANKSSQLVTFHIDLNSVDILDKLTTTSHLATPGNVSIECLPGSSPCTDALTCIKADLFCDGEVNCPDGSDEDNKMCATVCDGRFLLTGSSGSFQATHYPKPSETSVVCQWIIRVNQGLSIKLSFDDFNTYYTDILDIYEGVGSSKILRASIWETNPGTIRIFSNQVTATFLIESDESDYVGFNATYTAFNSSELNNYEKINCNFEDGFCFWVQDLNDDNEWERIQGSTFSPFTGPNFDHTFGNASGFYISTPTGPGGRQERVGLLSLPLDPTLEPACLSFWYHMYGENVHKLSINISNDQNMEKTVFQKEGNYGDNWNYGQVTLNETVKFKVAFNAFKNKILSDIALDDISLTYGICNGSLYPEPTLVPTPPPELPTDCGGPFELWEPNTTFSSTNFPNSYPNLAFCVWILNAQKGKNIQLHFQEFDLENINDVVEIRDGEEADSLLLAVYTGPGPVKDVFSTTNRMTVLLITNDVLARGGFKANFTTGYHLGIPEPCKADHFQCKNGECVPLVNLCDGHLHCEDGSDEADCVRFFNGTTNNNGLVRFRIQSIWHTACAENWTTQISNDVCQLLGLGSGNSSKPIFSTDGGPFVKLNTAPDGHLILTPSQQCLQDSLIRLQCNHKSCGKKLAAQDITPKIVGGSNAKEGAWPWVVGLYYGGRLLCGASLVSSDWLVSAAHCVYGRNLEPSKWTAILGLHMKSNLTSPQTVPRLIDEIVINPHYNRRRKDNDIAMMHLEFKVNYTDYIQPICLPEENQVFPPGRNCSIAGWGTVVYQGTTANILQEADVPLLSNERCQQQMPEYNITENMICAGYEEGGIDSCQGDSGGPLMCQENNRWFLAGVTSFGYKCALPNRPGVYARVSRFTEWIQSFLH
pepsin, sequence (P0DJD8 63-388): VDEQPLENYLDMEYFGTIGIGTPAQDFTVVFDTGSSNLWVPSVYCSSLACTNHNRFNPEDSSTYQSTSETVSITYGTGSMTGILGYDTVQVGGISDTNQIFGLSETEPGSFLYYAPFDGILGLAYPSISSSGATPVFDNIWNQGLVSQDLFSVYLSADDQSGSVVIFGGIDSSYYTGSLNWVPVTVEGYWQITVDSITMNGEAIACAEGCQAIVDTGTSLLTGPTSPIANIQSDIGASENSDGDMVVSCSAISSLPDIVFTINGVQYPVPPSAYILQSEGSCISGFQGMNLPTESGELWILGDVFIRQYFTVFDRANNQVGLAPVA

CC(C)(C)NC(=O)[C@@H]1C[C@@H]2CCCC[C@@H]2CN1C[C@@H](O)[C@H](Cc1ccccc1)NC(=O)[C@H](CC(N)=O)NC(=O)c1ccc2ccccc2n1 [saquinavir]
levels of blood glucose [1, 6]: significantly reduced
levels of HDL [2, 7]: higher
levels of LDL [2, 7]: significantly reduced
levels of cholesterol [2, 7]: significantly reduced
levels of triglycerides [2, 7]: significantly reduced

CC(C)c1nc(CN(C)C(=O)N[C@H](C(=O)N[C@@H](Cc2ccccc2)C[C@H](O)[C@H](Cc2ccccc2)NC(=O)OCc2cncs2)C(C)C)cs1 [ritonavir]
levels of blood glucose ([1]; 600 mg twice a day, 2 months): significantly reduced
levels of HDL ([2]; 600 mg twice a day, 2 months): higher
levels of LDL ([2]; 600 mg twice a day, 2 months): significantly reduced
levels of total cholesterol ([2]; 600 mg twice a day, 2 months): significantly reduced
levels of triglycerides ([2]; 600 mg twice a day, 2 months): significantly reduced

CC(C)(C)NC(=O)[C@@H]1CN(Cc2cccnc2)CCN1C[C@@H](O)C[C@@H](Cc1ccccc1)C(=O)N[C@H]1c2ccccc2C[C@H]1O [indinavir]
levels of blood glucose [1, 6]: significantly reduced
levels of HDL [2, 7]: higher
levels of LDL [2, 7]: significantly reduced
levels of cholesterol [2, 7]: significantly reduced
levels of triglycerides [2, 7]: significantly reduced

N=C(N)NCCC[C@H](NC(=O)[C@@H]1CCCN1C(=O)[C@H](N)Cc1ccc(O)cc1)C(=O)CCl [H-D-Tyr-Pro-Arg-chloromethylketone trifluororoacetate salt] (H-[dY]-Pro-Arg-CH2Cl)
IC50 when tested for enteropeptidase only, compared with the ones reported in FIG. 6 (enteropeptidase [3]): higher

CC(C)[C@H](NC(=O)[C@H](Cc1ccccc1)C[C@H](O)[C@H](Cc1ccccc1)NC(=O)OC(C)(C)C)C(=O)N[C@@H](Cc1ccccc1)C(=O)N1CCOCC1 [CGP 53437]
Ki (pepsin): 0.008 µM

CC(C)CN(C[C@@H](OP(=O)(O)O)[C@H](Cc1ccccc1)NC(=O)O[C@H]1CCOC1)S(=O)(=O)c1ccc(N)cc1 [fosamprenavir]
levels of blood glucose [1, 6]: significantly reduced
levels of HDL [2, 7]: higher
levels of LDL [2, 7]: significantly reduced
levels of cholesterol [2, 7]: significantly reduced
levels of triglycerides [2, 7]: significantly reduced

COC(=O)N[C@H](C(=O)N[C@@H](Cc1ccccc1)[C@@H](O)CN(Cc1ccc(-c2ccccn2)cc1)NC(=O)[C@@H](NC(=O)OC)C(C)(C)C)C(C)(C)C [atazanavir]
levels of blood glucose [1, 6]: significantly reduced
levels of HDL [2, 7]: higher
levels of LDL [2, 7]: significantly reduced
levels of cholesterol [2, 7]: significantly reduced
levels of triglycerides [2, 7]: significantly reduced

Cc1cccc(C)c1OCC(=O)N[C@@H](Cc1ccccc1)[C@@H](O)C[C@H](Cc1ccccc1)NC(=O)[C@H](C(C)C)N1CCCNC1=O [lopinavir]
levels of blood glucose [1, 6]: significantly reduced
levels of HDL [2, 7]: higher
levels of LDL [2, 7]: significantly reduced
levels of cholesterol [2, 7]: significantly reduced
levels of triglycerides [2, 7]: significantly reduced

Z-Asp-Glu-Val-Asp-chloromethylketone
IC50 when tested for enteropeptidase only, compared with the ones reported in FIG. 6 (enteropeptidase [3]): higher
inhibition (enteropeptidase [4]; tested at 50 μm): no inhibition

CC(=O)N[C@@H](CC(C)C)C(=O)N[C@H](C(=O)N[C@H](C=O)CCCCN)C(C)C [AC-Leu-Val-Lys-Aldhehyde] (Ac-Leu-Val-Lys-aldehyde)
IC50 (enteropeptidase [4]; trypsinogen activation assay, FIG. 6, enteropeptidase 1.5 nM, trypsinogen 2.5 μM): ~3 µM

BOC-Ala-Glu-Val-Asp-Aldehyde (Boc-AEVD-aldehyde; SMILES CC(C)[C@H](NC(=O)[C@H](CCC(=O)O)NC(=O)[C@H](C)NC(=O)OC(C)(C)C)C(=O)N[C@H](C=O)CC(=O)O) [negative control, Bachem N-1755]
inhibition (enteropeptidase [4]; tested at 10 μm): no inhibition

Cc1c(O)cccc1C(=O)N[C@@H](CSc1ccccc1)[C@H](O)CN1C[C@H]2CCCC[C@H]2C[C@H]1C(=O)NC(C)(C)C [nelfinavir]
levels of blood glucose [1, 6]: significantly reduced
levels of HDL [2, 7]: higher
levels of LDL [2, 7]: significantly reduced
levels of cholesterol [2, 7]: significantly reduced
levels of triglycerides [2, 7]: significantly reduced

CC(C)CN(C[C@@H](O)[C@H](Cc1ccccc1)NC(=O)O[C@H]1CCOC1)S(=O)(=O)c1ccc(N)cc1 [amprenavir]
levels of blood glucose [1, 6]: significantly reduced
levels of HDL [2, 7]: higher
levels of LDL [2, 7]: significantly reduced
levels of cholesterol [2, 7]: significantly reduced
levels of triglycerides [2, 7]: significantly reduced

AC-Leu-Val-Lys-Aldhehyde (peptide)
IC50 in the trypsinogen activation assay (percentage of inhibition, absorbance of pNA at 405 nM) [5]: 3 µM

H-[dY]-Pro-Arg-CH2Cl (also: trifluoroacetate salt) [H-D-Tyr-Pro-Arg-chloromethylketone trifluororoacetate salt]
IC50 in the trypsinogen activation assay (percentage of inhibition, absorbance of pNA at 405 nM) [5]: ~35 nM

{1,5‑dansyl}-Glu-Gly-Arg-CH2Cl (also: dihydrochloride salt) [1,5-Dansyl-Glu-Gly-Arg-chloromethylketone dihydrochloride]
IC50 in the trypsinogen activation assay (percentage of inhibition, absorbance of pNA at 405 nM) [5]: ~24.7 nM
